# In the supplement of paper PMC10307832:
# Tests used:
# Experiment in all cases: relative viability (nuclei count vs DMSO), 5 days (fraction); higher = more cells survive
# [1] = compound: CCN1CCC(CC1)N2C=C(N=N2)CNC3=CC4=C(C(=CN=C4C(=C3)Cl)C#N)NC5=CC(=C(C=C5)F)Cl [KIN001-266] + COc1cc2c(Oc3ccc(NC(=O)C4(C(=O)Nc5ccc(F)cc5)CC4)cc3F)ccnc2cc1OCCCN1CCOCC1 [Foretinib] (partner 0.25 µM)
# Procedure, shortened: (§1)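 Lung cancer cell lines were seeded in 1536-well plates and dosed by pin tool the next day, with either a single drug or a fixed anchor-drug dose combined with five library-drug doses (not always all listed) spaced in √10 steps. Five days later, one step fixed the cells and stained their nuclei (final 0.05% Triton X-100, 1% formaldehyde, 1 ug/ml Hoechst), and nuclei were counted on 4× images. Relative viability is the nuclei count in treated wells divided by the count in vehicle wells, and each value is the median of duplicate plates.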
# [2] = compound: CCN1CCC(CC1)N2C=C(N=N2)CNC3=CC4=C(C(=CN=C4C(=C3)Cl)C#N)NC5=CC(=C(C=C5)F)Cl [KIN001-266] + O=C(CCCCCCC(=O)Nc1ccccc1)NO [Vorinostat] (partner 1 µM)
# Procedure, shortened: as §1
# [3] = compound: CCN1CCC(CC1)N2C=C(N=N2)CNC3=CC4=C(C(=CN=C4C(=C3)Cl)C#N)NC5=CC(=C(C=C5)F)Cl [KIN001-266] + NC(=O)Nc1cc(-c2cccc(F)c2)sc1C(=O)N[C@H]1CCCNC1 [AZD7762] (partner 0.2 µM)
# Procedure, shortened: as §1
# [4] = compound: CCN1CCC(CC1)N2C=C(N=N2)CNC3=CC4=C(C(=CN=C4C(=C3)Cl)C#N)NC5=CC(=C(C=C5)F)Cl [KIN001-266] + CS(=O)(=O)N1CCN(Cc2cc3nc(-c4cccc5[nH]ncc45)nc(N4CCOCC4)c3s2)CC1 [Pictilisib] (partner 1 µM)
# Procedure, shortened: as §1
Cell Line,relative viability ([1]; first compound 0.08 µM),relative viability ([1]; first compound 0.253 µM),relative viability ([1]; first compound 0.8 µM),relative viability ([1]; first compound 2.53 µM),relative viability ([1]; first compound 8 µM),relative viability ([2]; first compound 0.08 µM),relative viability ([2]; first compound 0.253 µM),relative viability ([2]; first compound 0.8 µM),relative viability ([2]; first compound 2.53 µM),relative viability ([2]; first compound 8 µM),relative viability ([3]; first compound 0.08 µM),relative viability ([3]; first compound 0.253 µM),relative viability ([3]; first compound 0.8 µM),relative viability ([3]; first compound 2.53 µM),relative viability ([3]; first compound 8 µM),relative viability ([4]; first compound 0.08 µM),relative viability ([4]; first compound 0.253 µM),relative viability ([4]; first compound 0.8 µM),relative viability ([4]; first compound 2.53 µM),relative viability ([4]; first compound 8 µM)
NCI-H441,1.04,0.889,1.02,0.781,0.689,0.968,0.765,0.58,0.617,0.584,0.941,1.2,1.11,1.07,1.19,0.559,0.381,0.481,0.459,0.415
NCI-H1793,0.598,0.812,0.718,0.883,0.705,0.887,0.738,–,0.723,0.555,0.482,0.541,–,0.276,0.376,0.287,0.332,0.305,0.253,0.322
NCI-H23,0.924,0.83,0.975,0.995,0.862,0.7,0.523,0.667,0.584,0.551,0.195,0.249,0.304,0.22,0.246,0.494,0.557,0.458,0.351,0.469
HARA,0.814,0.884,0.878,0.858,0.821,0.544,0.603,0.481,0.462,0.502,0.306,0.369,0.364,0.233,0.261,0.515,0.466,0.507,0.444,0.291
NCI-H1792,–,–,–,–,–,–,–,–,–,–,0.825,0.66,0.738,0.902,0.516,0.312,0.282,0.325,0.305,0.265
NCI-H1703,0.367,–,0.37,0.359,0.366,–,–,–,–,–,–,–,–,–,0.112,0.287,0.23,0.234,0.211,0.223
NCI-H2342,1.09,1.04,1.17,1.15,1.07,0.693,0.867,0.876,0.776,1.16,0.559,0.492,0.451,0.431,0.545,–,–,–,–,–
CAL-12T,1.21,1.01,1.02,0.974,1.11,0.728,0.662,0.903,0.73,0.895,0.633,0.639,0.574,0.642,0.606,0.698,0.539,–,0.31,0.47
NCI-H727,0.883,0.855,0.821,0.888,0.649,1.13,1.29,1.31,1.08,1.14,0.514,0.554,0.518,0.494,0.649,0.389,0.351,0.327,0.264,0.304
NCI-H2085,1.06,1.01,0.731,0.939,0.954,0.785,0.779,0.808,0.772,0.667,0.971,1.03,0.847,0.962,0.977,0.524,0.452,0.421,0.462,0.458
NCI-H1395,0.984,0.93,0.952,0.939,0.914,0.679,0.768,0.828,0.654,0.709,0.404,0.453,0.399,0.375,0.391,0.693,0.843,0.614,0.522,0.575
NCI-H1648,–,–,–,–,–,0.438,0.502,0.515,0.453,0.422,0.721,0.713,0.518,0.572,0.669,–,–,–,–,–
NCI-H460,1.01,0.973,1.02,0.936,0.941,0.725,0.697,0.735,0.649,0.671,0.543,0.679,0.681,0.554,0.524,0.5,0.339,0.308,0.355,0.302
A549,0.95,0.854,1.04,0.87,0.926,–,–,–,–,–,–,–,–,–,–,0.584,0.527,0.519,0.584,0.393
IA-LM,1.03,1.17,1.41,1.19,0.891,0.932,0.966,0.971,–,1.01,–,–,–,–,–,0.336,0.364,0.274,0.348,0.317
EKVX,0.858,0.744,0.642,0.781,0.624,0.663,0.671,0.757,0.735,0.678,0.706,0.824,0.728,0.667,0.657,0.386,0.417,0.425,0.405,0.4
ChaGo-K-1,0.904,0.989,0.756,0.793,0.871,0.792,0.718,0.737,0.645,0.535,0.858,0.924,0.856,0.811,0.585,1.04,0.852,–,0.844,0.703
SW 900,1.08,0.987,0.908,0.835,0.697,0.557,0.549,0.466,0.426,0.319,0.639,0.601,0.527,0.522,0.327,–,–,–,–,–
NCI-H1755,0.96,0.913,0.894,0.862,0.83,0.726,0.75,0.7,0.691,0.763,0.408,0.492,0.425,0.452,0.43,0.463,0.447,0.387,0.458,0.398
